For one assay, the system named is AML mice (MLL-AF9). The assay can be described thus: MLL-AF9 acute myeloid leukemia (AML) mouse model. Format: in vivo. To be noted: oral gavage 20 mg/kg for 3 days then 10 mg/kg/day for 6 days. How it is done: Generation of a mouse model of acute myeloid leukemia (AML) (FIG. 6) and treatment with the CKIα inhibitor A14 (FIGS. 7, 8 and 9) or A51 (FIGS. 11 and 12). To generate the MLL-AF9 Acute myeloid leukemia (AML) model, bone marrow (BM) cells from 10 week old wild type mouse were extracted and enriched for cKit expressing cells (EasySep #18757) and incubated overnight in RPMI supplemented with 15% FCS L-Glutamine, Pen/Strep (Biological Industries, Israel) and stem cell factor (SCF), IL-3, IL-6 and TPO (Peprotech). The culture was infected with MSCV-MLL-AF9-IRES-GFP retrovirus construct containing supernatant medium for 4 hours, then growth medium was added and infected cells were incubated at 37° C. for additional 24 h. The culture was then injected I.V. into sub lethally irradiated (500 rad) mice. Upon detectable steady increase of GFP expressing cells in the mice peripheral blood (checked by FACS analysis) and rise in leukocyte numbers and immature cells (detected by Wright-Giemsa stained blood films), mice were sacrificed and their BM was transferred (1st BMT) to sublethally irradiated WT hosts. Upon emergence of AML disease mice were sacrificed and 50,000 BM cells were transplanted (2nd BMT) into WT host mice. GFP expressing cells were monitored in the peripheral blood and upon detecting >10% GFP^+ in PB (day 11 after BMT) mice were treated with A14 inhibitor (FIG. 7A). A14 was administered by oral gavage once a day at a dose of 20 mg/kg for 3 days followed by 10 mg/kg/day for 6 more days. The inhibitor was dissolved in 1% methyl cellulose with 0.1% Tween 80 and 0.2% Poly-ethylene glycol (Vehicle). Control mice were treated with the vehicle only. Mice were monitored daily for cachexia, lethargy, and ruff coats, and moribund mice were sacrificed. For a single dose experiment (FIG. 11A) A51 was administered by oral gavage at a single dose of 20 mg/kg and mice were sacrificed 16 hours following treatment.
Complete blood counts. Peripheral venous blood was obtained from the mouse facial vein using standard techniques and analyzed using the auto hematology analyzer BC-2800 (Mindray) per manufacturer's instructions.
Single-dose treatment effect of a CKI inhibitor in AML mice and PD-L1 expression. AML mice were prepared by inoculating MLL-AF9 oncogene-transduced bone marrow cells to C57/BL6 mice. MLL-AF9 fusion represents one of a poor prognosis human AML induced by chromosomal translocation. 30 days after leukemia inoculation, the recipient mice have high white blood cells (WBC) counts (×10 higher than a normal mouse), and harbor >95% leukemia blasts in the bone marrow and 50% of the peripheral WBC in these mice are AML blasts. These mice have splenomegaly and their bones are pale and fragile due to the acute leukemia (FIG. 12).

Assay [1] concerns the target T1, IRAK1 (Homo sapiens, UniProt P51617).
T1 construct: RKO cells were incubated for 16 hours at 37° C. with the indicated concentrations of compounds; endogenous in cells; host or cells: RKO cells, stimulated with TNFα
The assay can be described thus: Kd measurements for the interaction with IRAK1. Format: binding.

The target of assay [2] is T1, IRAK1. The assay can be described thus: IRAK1 inhibition in RKO cells treated with TNFα (Western blot). The format is cell-based. The conditions noted are these: RKO cells, Western blot; A51 1 μM, A14 2 μM, 16 hours, TNFα 100 units/ml. As to the method: (§1) Cells were harvested and analyzed by Western blot. Blots were incubated with the following antibodies: Phospho-IRAK1 (Thr209), (A1074, AssayBiothechnology; 1/1,000), Phospho-IKKα/β (Ser176/180) (16A6, Cell Signaling; 1/1,000), IKKα (2682, cell signaling; 1/1,1000), IKK β (2370, cell signaling; 1/1,1000), Phospho-c-Jun (Ser 63) (9261, cell signaling; 1/1,1000), p53 (DO-1&1801 hybridoma mix; dilution of 1:20 of supernatants from each), CKIα (C-19; 1/1,000; Santa Cruz Biotechnology) and phospho-histoneH2AX (S139; 1/1,000; Millipore). Secondary antibodies were HRP-linked goat anti-mouse, goat anti-rabbit and rabbit anti-goat antibodies (all 1/10,000; Jackson). Inhibition of Phospho-IRAK1, Phospho-IKKα/β and Phospho-c-Jun indicate IRAK1 inhibition. p53 stabilization and phosphorylation of H2AX (γH2AX), a marker of DNA damage, indicative of CKIα kinase inhibition. CKIα protein levels serves as a loading control.
as §1, with “IRAK1 Inhibition with compounds of the invention. RKO cells were incubated for 16 hours at 37° C. with the indicated concentrations of compounds of the invention A51 (1 μM) and A14 (2 μM) (FIG. 10). At the indicated time points, RKO were treated with TNFα (100 units/ml). Cells” for “Cells”, “IKKβ” for “IKK β”, “Blots were developed using ECL (GE Healthcare). […] Also shown is” for “Inhibition of Phospho-IRAK1, Phospho-IKKα/β and Phospho-c-Jun indicate IRAK1 inhibition.”

T1 sequence (P51617 whole entry): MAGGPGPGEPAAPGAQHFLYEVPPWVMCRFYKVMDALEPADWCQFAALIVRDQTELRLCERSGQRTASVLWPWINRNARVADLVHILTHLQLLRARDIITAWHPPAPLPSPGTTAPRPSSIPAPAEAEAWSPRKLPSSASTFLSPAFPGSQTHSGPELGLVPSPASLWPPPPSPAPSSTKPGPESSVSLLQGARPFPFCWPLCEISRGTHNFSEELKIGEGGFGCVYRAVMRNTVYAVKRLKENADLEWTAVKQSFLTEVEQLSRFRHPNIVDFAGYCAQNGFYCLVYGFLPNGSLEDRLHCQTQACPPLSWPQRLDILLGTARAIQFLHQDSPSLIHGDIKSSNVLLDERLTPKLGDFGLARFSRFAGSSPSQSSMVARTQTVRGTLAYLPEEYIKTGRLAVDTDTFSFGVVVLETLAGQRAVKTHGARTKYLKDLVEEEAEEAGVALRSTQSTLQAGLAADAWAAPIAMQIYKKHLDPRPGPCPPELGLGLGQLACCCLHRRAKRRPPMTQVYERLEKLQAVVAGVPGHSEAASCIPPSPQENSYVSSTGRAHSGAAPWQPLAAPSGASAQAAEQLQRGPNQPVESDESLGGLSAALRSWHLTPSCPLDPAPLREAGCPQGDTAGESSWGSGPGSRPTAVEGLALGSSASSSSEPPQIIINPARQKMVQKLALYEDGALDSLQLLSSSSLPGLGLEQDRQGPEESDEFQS

As a reminder, the Kd is a measure of binding affinity in units of concentration. Higher therefore signals a looser complex. As for `Cn1ncc(-c2ccnc(N[C@H]3CC[C@H](N)CC3)n2)c1CC1CC1` [Compound A14, (1R, 4R)—N^1-(4-(5-(cyclopropylmethyl)-1-methyl-1H-pyrazol-4-yl)pyrimidin-2-yl)cyclohexane-1,4-diamine], the “progression of AML, GFP+ leukocytes in peripheral blood (in words)” value in the assay with AML mice (MLL-AF9) is given as “inhibitory effect”. Moreover, the Kd on IRAK1 [1] was 11 nM. At IRAK1 [2], the “IRAK1 activation and activation of the IRAK1 target IKK (in words)” value is given as “inhibition of IRAK1 activation”.

These data come from patent publication US12514859B2, “Pyrazole pyrimidine derivative and uses thereof” (Yissum Research Development Company of the Hebrew …, priority 2015, dated 2026).
